Assay results as given in patent US12702660B2, “Method for treating cancer with an oral dosage form of an estrogen receptor-alpha inhibitor” (Eisai R&D Management Co., Ltd., priority 2019, dated 2026).
Like-named read-outs stand apart in the source and are kept apart here.

Assay: Plasma PK of H3B-6545 capsules in fasted patients, phase 1 dose escalation
Type: in vivo, human
Conditions: for Vd / Vd/F / Tmax / AUC(0-inf) / Cmax / half-life / AUC(0-t): female, human, plasma, oral; for Vd / Vd/F / AUC(0-inf) / Cmax / half-life / AUC(0-t): Geometric Mean (GeoCV %); for Vd: read-out: Vss; for Vd/F: read-out: Vz/F
Description: Blood samples were collected at the planned time points from each patient and centrifuged. The plasma portion of each sample was then transferred to a K2EDTA tube, which was then shipped to a bioanalytical lab for concentration measurement using LC-MS/MS. The concentration data were then analyzed using Phoenix® WinNonlin software to obtain PK parameters. The obtained PK parameters were further summarized using analytical software.
Blood samples (approximately 5 mL each) were collected from human patients pre-dose and at various hourly time points post-dose. Plasma concentrations of H3B-6545 were determined using a validated high-performance liquid chromatography/tandem mass spectrometry (LC-MS/MS) method. The lower limit of quantification was 0.100 ng/mL.
The PK Analysis Set included subjects who received H3B-6545 drug product in capsules or tablets and had sufficient evaluable plasma concentration data to derive at least 1 primary PK parameter in each treatment. Plasma concentrations of H3B-6545 (as free base) were tabulated and summarized at each nominal time using descriptive statistics (number of subjects, arithmetic mean with standard deviation [SD], coefficient of variation [CV %], geometric mean, median, minimum, and maximum) as appropriate. Individual and mean (±SD) plasma concentration-time profiles were provided for each treatment.
Pharmacokinetic parameters of H3B-6545 were calculated using noncompartmental methods, using an appropriate model for plasma data and extravascular administration. The PK parameters included, but were not limited to, area under the curve to the time of the last quantifiable concentration (AUC0-t), maximum concentration (Cmax), and time at which the maximum concentration occurred (tmax). If data permitted, the area under the plasma concentration-time curve extrapolated to infinity (AUC0-inf), terminal elimination half-life (t1/2), apparent total body clearance (CL/F), total systemic clearance after oral administration at steady state (CLss/F), apparent volume of distribution during the terminal phase (Vz/F), apparent steady-state volume of distribution (Vss), accumulation ratio for Cmax (RCmax) and accumulation ratio of AUC0-24 (RAUC) were also derived.
Methods were used to analyze whether H3B-6545 inactivates both wild-type and mutant ERα by targeting cysteine 530 and enforcing a unique antagonist conformation. Methods: Women with locally advanced or metastatic HR+BC are treated (tx) with H3B-6545 drug product administered once daily orally by capsule over a 28 day cycle after progression on at least one hormonal therapy and at least one additional therapy/regimen. Dose escalation uses a 3+3 design with the option to backfill previously cleared doses and allows for intrapatient dose escalation. This example explored the safety, pharmacokinetics and pharmacodynamics of H3B-6545 in women with HR+BC to identify a recommended subsequent dose for testing.
• H3B-6545 administered once daily orally over a 28 day cycle. • Dose escalation using a standard 3+3 study design using dose cohorts of 100, 200, 300, 450, and 600 mg QD. • Patients allowed to backfill previously cleared doses. • Intra-patient dose escalation allowed after completion of Cycle 3. Results (as of Apr. 20, 2019) Patient Population: • 46 patients were treated with H3B-6545 at doses of 100 to 600 mg QD. • 42 (91.3%) patients received a prior CDK4/6 inhibitor and 32 (69.6%) prior fulvestrant. • 30 (65.2%) patients received ≥3 prior anti-cancer therapy lines in the advanced/metastatic setting.
The clinical trial of Example 3 was continued and PK evaluations (of this Example 4) were made at a later date on the basis of a larger patient population. The summary of Tables 1 in Analysis of Pharmacokinetic (PK) of Capsules in Fasted Patients and 2 show PK parameters and profiles of human patients receiving capsules of H3B-6545 drug product prepared as in Example 1. […]

[1] = 100 mg, Cycle 1 Day 1, 100 mg QD capsules, fasted patients
[2] = 100 mg, Cycle 1 Day 15, 100 mg QD capsules, fasted patients
[3] = 200 mg, Cycle 1 Day 1, 200 mg QD capsules, fasted patients
[4] = 200 mg, Cycle 1 Day 15, 200 mg QD capsules, fasted patients
[5] = 300 mg, Cycle 1 Day 1, 300 mg QD capsules, fasted patients
[6] = 300 mg, Cycle 1 Day 15, 300 mg QD capsules, fasted patients
[7] = 450 mg, Cycle 1 Day 1, 450 mg QD capsules, fasted patients
[8] = 450 mg, Cycle 1 Day 15, 450 mg QD capsules, fasted patients
[9] = 600 mg, Cycle 1 Day 1, 600 mg QD capsules, fasted patients
[10] = 600 mg, Cycle 1 Day 15, 600 mg QD capsules, fasted patients

CN(C)C(=O)/C=C/CNCCOc1ccc(/C(=C(/CC(F)(F)F)c2ccccc2)c2ccc3[nH]nc(F)c3c2)cn1 [H3B-6545, (E)-N,N-dimethyl-4-[2-[5-[(Z)-4,4,4-trifluoro-1-(3-fluoro-1H-indazol-5-yl)-2-phenylbut-1-enyl]pyridin-2-yl]oxyethylamino]but-2-enamide]
Vd [1]: 713 L
Vd/F [1]: 689 L
Tmax (100 mg, Cycle 1 Day 1, 100 mg QD capsules, fasted patients, Median (Min, Max)): 3.05 h
AUC(0-inf) [2]: 2950 ng·h/mL
Cmax [2]: 287 ng/mL
half-life [2]: 11.5 h
AUC(0-t) (100 mg, Cycle 1 Day 15, 100 mg QD capsules, fasted patients, read-out: AUC0-24): 2560 ng·h/mL
AUC(0-t) (100 mg, Cycle 1 Day 15, 100 mg QD capsules, fasted patients, read-out: AUC0-t): 2590 ng·h/mL
Vd [2]: 679 L
Vd/F [2]: 731 L
Tmax (100 mg, Cycle 1 Day 15, 100 mg QD capsules, fasted patients, Median (Min, Max)): 2 h
AUC(0-inf) [3]: 5270 ng·h/mL
Cmax [3]: 473 ng/mL
half-life [3]: 9.73 h
AUC(0-t) (200 mg, Cycle 1 Day 1, 200 mg QD capsules, fasted patients, read-out: AUC0-24): 4760 ng·h/mL
AUC(0-t) (200 mg, Cycle 1 Day 1, 200 mg QD capsules, fasted patients, read-out: AUC0-t): 4810 ng·h/mL
Vd [3]: 567 L
Vd/F [3]: 532 L
Tmax (200 mg, Cycle 1 Day 1, 200 mg QD capsules, fasted patients, Median (Min, Max)): 5 h
AUC(0-inf) [4]: 7950 ng·h/mL
Cmax [4]: 605 ng/mL
half-life [4]: 10.1 h
AUC(0-t) (200 mg, Cycle 1 Day 15, 200 mg QD capsules, fasted patients, read-out: AUC0-24): 6870 ng·h/mL
AUC(0-t) (200 mg, Cycle 1 Day 15, 200 mg QD capsules, fasted patients, read-out: AUC0-t): 6910 ng·h/mL
Vd [4]: 456 L
Vd/F [4]: 455 L
Tmax (200 mg, Cycle 1 Day 15, 200 mg QD capsules, fasted patients, Median (Min, Max)): 2.17 h
AUC(0-inf) [5]: 11100 ng·h/mL
Cmax [5]: 898 ng/mL
half-life [5]: 9.58 h
AUC(0-t) (300 mg, Cycle 1 Day 1, 300 mg QD capsules, fasted patients, read-out: AUC0-24): 9480 ng·h/mL
AUC(0-t) (300 mg, Cycle 1 Day 1, 300 mg QD capsules, fasted patients, read-out: AUC0-t): 9520 ng·h/mL
Vd [5]: 416 L
Vd/F [5]: 374 L
Tmax (300 mg, Cycle 1 Day 1, 300 mg QD capsules, fasted patients, Median (Min, Max)): 4 h
AUC(0-inf) [6]: 12700 ng·h/mL
Cmax [6]: 1200 ng/mL
half-life [6]: 8.52 h
AUC(0-t) (300 mg, Cycle 1 Day 15, 300 mg QD capsules, fasted patients, read-out: AUC0-24): 12000 ng·h/mL
AUC(0-t) (300 mg, Cycle 1 Day 15, 300 mg QD capsules, fasted patients, read-out: AUC0-t): 12100 ng·h/mL
Vd [6]: 373 L
Vd/F [6]: 348 L
Tmax (300 mg, Cycle 1 Day 15, 300 mg QD capsules, fasted patients, Median (Min, Max)): 4 h
AUC(0-inf) [7]: 23000 ng·h/mL
Cmax [7]: 1500 ng/mL
half-life [7]: 11 h
AUC(0-t) (450 mg, Cycle 1 Day 1, 450 mg QD capsules, fasted patients, read-out: AUC0-24): 16200 ng·h/mL
AUC(0-t) (450 mg, Cycle 1 Day 1, 450 mg QD capsules, fasted patients, read-out: AUC0-t): 16200 ng·h/mL
Vd [7]: 343 L
Vd/F [7]: 311 L
Tmax (450 mg, Cycle 1 Day 1, 450 mg QD capsules, fasted patients, Median (Min, Max)): 4 h
AUC(0-inf) [8]: 17400 ng·h/mL
Cmax [8]: 1420 ng/mL
half-life [8]: 9.81 h
AUC(0-t) (450 mg, Cycle 1 Day 15, 450 mg QD capsules, fasted patients, read-out: AUC0-24): 14000 ng·h/mL
AUC(0-t) (450 mg, Cycle 1 Day 15, 450 mg QD capsules, fasted patients, read-out: AUC0-t): 14100 ng·h/mL
Vd [8]: 489 L
Vd/F [8]: 466 L
Tmax (450 mg, Cycle 1 Day 15, 450 mg QD capsules, fasted patients, Median (Min, Max)): 4 h
AUC(0-inf) [9]: 32900 ng·h/mL
Cmax [9]: 2050 ng/mL
half-life [9]: 13.1 h
AUC(0-t) (600 mg, Cycle 1 Day 1, 600 mg QD capsules, fasted patients, read-out: AUC0-24): 22400 ng·h/mL
AUC(0-t) (600 mg, Cycle 1 Day 1, 600 mg QD capsules, fasted patients, read-out: AUC0-t): 22300 ng·h/mL
Vd [9]: 366 L
Vd/F [9]: 344 L
Tmax (600 mg, Cycle 1 Day 1, 600 mg QD capsules, fasted patients, Median (Min, Max)): 4 h
AUC(0-inf) [10]: 39700 ng·h/mL
Cmax [10]: 1680 ng/mL
half-life [10]: 21.8 h
AUC(0-t) (600 mg, Cycle 1 Day 15, 600 mg QD capsules, fasted patients, read-out: AUC0-24): 18400 ng·h/mL
AUC(0-t) (600 mg, Cycle 1 Day 15, 600 mg QD capsules, fasted patients, read-out: AUC0-t): 18700 ng·h/mL
Vd [10]: 1100 L
Vd/F [10]: 1030 L
Tmax (600 mg, Cycle 1 Day 15, 600 mg QD capsules, fasted patients, Median (Min, Max)): 4 h
Tmax (as of 10 Dec. 2018, 100 to 450 mg/day capsules): 2 to 4 h
Tmax (as of Apr. 20, 2019, 100 to 600 mg QD): 2 to 4 h
plasma concentration, C1D1 versus C1D15 (once daily dosing): similar
